What was measured:
IGROV1 = assay: NCI 60 cell panel SRB screen; assay type: cell-based; settings: Homo sapiens, IGROV-1
SNB-19 = assay: NCI 60 cell panel SRB screen; assay type: cell-based; settings: Homo sapiens
SNB-75 = assay: NCI 60 cell panel SRB screen; assay type: cell-based; settings: Homo sapiens
SK-OV-3 = assay: NCI 60 cell panel SRB screen; assay type: cell-based; settings: Homo sapiens
PC-3 = assay: NCI 60 cell panel SRB screen; assay type: cell-based; settings: Homo sapiens
NCI-H226 = assay: NCI 60 cell panel SRB screen; assay type: cell-based; settings: Homo sapiens
full NCI 60 cell panel = assay: NCI 60 cell panel SRB screen, whole panel; assay type: cell-based, human; settings: Homo sapiens, 60 cell
SK-MEL-28 = assay: NCI 60 cell panel SRB screen; assay type: cell-based; settings: Homo sapiens
NCI-H460 = assay: NCI 60 cell panel SRB screen; assay type: cell-based; settings: Homo sapiens
T-47D = assay: NCI 60 cell panel SRB screen; assay type: cell-based; settings: Homo sapiens, T47D
NCI/ADR-RES = assay: NCI 60 cell panel SRB screen; assay type: cell-based; settings: Homo sapiens
ACHN = assay: NCI 60 cell panel SRB screen; assay type: cell-based; settings: Homo sapiens
CAKI-1 = assay: NCI 60 cell panel SRB screen; assay type: cell-based, human; settings: Homo sapiens; CAKI-1, single dose 10 μM; read-out: percent cell growth promotion
OVCAR-5 = assay: NCI 60 cell panel SRB screen; assay type: cell-based; settings: Homo sapiens
HL-60(TB) = assay: NCI 60 cell panel SRB screen; assay type: cell-based; settings: Homo sapiens
U251 = assay: NCI 60 cell panel SRB screen; assay type: cell-based; settings: Homo sapiens, U-251
RXF 393 = assay: NCI 60 cell panel SRB screen; assay type: cell-based; settings: Homo sapiens
SN12C = assay: NCI 60 cell panel SRB screen; assay type: cell-based; settings: Homo sapiens
NCI-H23 = assay: NCI 60 cell panel SRB screen; assay type: cell-based; settings: Homo sapiens
[1] = 5 log dose, 48 h, read-out: LC50 (the source's name)
[2] = single dose 10 μM, read-out: percent cell growth promotion

Clc1ccc(Nc2nnc(CNc3ccccc3)c3ccccc23)cc1 [Compound 16a, N-(4-Chlorophenyl)-4-((phenylamino)methyl)phthalazin-1-amine]
GI50 (IGROV1; IGROV1, 5 log dose): 1.93 µM | IC (TGI) (IGROV1; IGROV1, 5 log dose): 10.7 µM | CC50 (IGROV1; IGROV1, 5 log dose, 48 h, read-out: LC50 (the source's name)): > 25 µM | activity at 10 µM (IGROV1; IGROV1, single dose 10 μM, read-out: percent cell growth promotion): 19.1% | GI50 (SNB-19; SNB-19, 5 log dose): 4.71 µM | IC (TGI) (SNB-19; SNB-19, 5 log dose): 22.7 µM | CC50 (SNB-19; SNB-19, 5 log dose, 48 h, read-out: LC50 (the source's name)): > 25 µM | activity at 10 µM (SNB-19; SNB-19, single dose 10 μM, read-out: percent cell growth promotion): 25.9% | GI50 (SNB-75; SNB-75, 5 log dose): 0.87 µM | IC (TGI) (SNB-75; SNB-75, 5 log dose): 7.05 µM | LC50 (concentration killing 50% of cells) (SNB-75; SNB-75, 5 log dose, 48 h): > 25 µM | activity at 10 µM (SNB-75; SNB-75, single dose 10 μM, read-out: percent cell growth promotion): 19.6% | GI50 (SK-OV-3; SK-OV-3, 5 log dose): 3.17 µM | IC (TGI) (SK-OV-3; SK-OV-3, 5 log dose): 11.4 µM | CC50 (SK-OV-3; SK-OV-3, 5 log dose, 48 h, read-out: LC50 (the source's name)): > 25 µM | activity at 10 µM (SK-OV-3; SK-OV-3, single dose 10 μM, read-out: percent cell growth promotion): 22% | GI50 (PC-3; PC-3, 5 log dose): 14.4 µM | IC (TGI) (PC-3; PC-3, 5 log dose): 14.4 µM | CC50 (PC-3; PC-3, 5 log dose, 48 h, read-out: LC50 (the source's name)): > 25 µM | activity at 10 µM (PC-3; PC-3, single dose 10 μM, read-out: percent cell growth promotion): 7.15% | GI50 (NCI-H226; NCI-H226, 5 log dose): 2.52 µM | IC (TGI) (NCI-H226; NCI-H226, 5 log dose): 7.98 µM | CC50 (NCI-H226; NCI-H226, 5 log dose, 48 h, read-out: LC50 (the source's name)): > 25 µM | activity at 10 µM (NCI-H226; NCI-H226, single dose 10 μM, read-out: percent cell growth promotion): 25% | activity at 10 µM (full NCI 60 cell panel; mean over the panel, single dose 10 μM, read-out: Mean percent cell growth promotion): 10.7% | inhibition at 10 µM (full NCI 60 cell panel; single dose 10 µM, read-out: cell growth inhibition against various cell lines): > 90% | GI50 (SK-MEL-28; SK-MEL-28): 3.67 µM | IC (TGI) (SK-MEL-28; SK-MEL-28, read-out: TGI): 10.5 µM | activity at 10 µM (SK-MEL-28; SK-MEL-28, read-out: percent cell growth promotion): 14.9% | CC50 (SK-MEL-28; SK-MEL-28, 5 log dose, 48 h, read-out: LC50 (the source's name)): > 25 µM | GI50 (NCI-H460; NCI-H460, 5 log dose): 3.21 µM | IC (TGI) (NCI-H460; NCI-H460, 5 log dose): 9.98 µM | LC50 (concentration causing 50% cell kill) (NCI-H460; NCI-H460, 5 log dose, 48 h): > 25 µM | activity at 10 µM (NCI-H460; NCI-H460, single dose 10 μM, read-out: percent cell growth promotion): 17.6% | GI50 (T-47D): 1.17 µM | IC (TGI) (T-47D; read-out: TGI): 8.28 µM | activity at 10 µM (T-47D; read-out: percent cell growth promotion): 2.82% | CC50 (T-47D; T-47D, 5 log dose, 48 h, read-out: LC50 (the source's name)): > 25 µM | GI50 (NCI/ADR-RES; 5 log dose): 4.12 µM | IC (TGI) (NCI/ADR-RES; 5 log dose): 17 µM | CC50 (NCI/ADR-RES; [1]): > 25 µM | activity at 10 µM (NCI/ADR-RES; [2]): 18.8% | GI50 (ACHN; 5 log dose): 3.1 µM | IC (TGI) (ACHN; 5 log dose): > 25 µM | CC50 (ACHN; [1]): > 25 µM | activity at 10 µM (ACHN; [2]): 7.07% | activity at 10 µM (CAKI-1): 28.2% | GI50 (OVCAR-5; OVCAR-5, 5 log dose): 4.92 µM | IC (TGI) (OVCAR-5; OVCAR-5, 5 log dose): > 25 µM | CC50 (OVCAR-5; OVCAR-5, 5 log dose, 48 h, read-out: LC50 (the source's name)): > 25 µM | activity at 10 µM (OVCAR-5; OVCAR-5, single dose 10 μM, read-out: percent cell growth promotion): 41.5% | GI50 (HL-60(TB); 5 log dose): 3.71 µM | IC (TGI) (HL-60(TB); 5 log dose): 13 µM | CC50 (HL-60(TB); [1]): > 25 µM | activity at 10 µM (HL-60(TB); [2]): -13.3% | GI50 (U251; U251, 5 log dose): 3.28 µM | IC (TGI) (U251; U251, 5 log dose): 7.33 µM | CC50 (U251; U251, 5 log dose, 48 h, read-out: LC50 (the source's name)): 16.4 µM | activity at 10 µM (U251; U251, single dose 10 μM, read-out: percent cell growth promotion): 9.66% | GI50 (RXF 393; RXF 393, 5 log dose): 2.6 µM | IC (TGI) (RXF 393; RXF 393, 5 log dose): 8.12 µM | CC50 (RXF 393; RXF 393, 5 log dose, 48 h, read-out: LC50 (the source's name)): > 25 µM | activity at 10 µM (RXF 393; RXF 393, single dose 10 μM, read-out: percent cell growth promotion): 25.7% | GI50 (SN12C; 5 log dose): 3.95 µM | IC (TGI) (SN12C; 5 log dose): 18.9 µM | CC50 (SN12C; [1]): > 25 µM | activity at 10 µM (SN12C; [2]): 28.9% | GI50 (NCI-H23; NCI-H23, 5 log dose): 2.5 µM | IC (TGI) (NCI-H23; NCI-H23, 5 log dose): 16.4 µM | CC50 (NCI-H23; NCI-H23, 5 log dose, 48 h, read-out: LC50 (the source's name)): > 25 µM | activity at 10 µM (NCI-H23; NCI-H23, single dose 10 μM, read-out: percent cell growth promotion): 9.95%
